{
  "source": "patent US10278984B2",
  "about": "“Guanosine as an immune potentiator mediated through toll receptors” (Nitor Therapeutics, priority 2014, dated 2019)",
  "key": {"[1]": {"tested_on": "B16 tumors", "assay": "Mouse melanoma model, NTR001 and cyclophosphamide", "type": "in vivo, C57BL/6 mice", "details": "cyclophosphamide 100 mg/kg IP single dose", "protocol": "Method: Cancer cells were injected subcutaneously in right flank of each mouse, 1×10^4 cells in 0.1 ml PBS with 20% Matrigel. Treatment with the NTR001 was initiated on day 6 after injection of tumor cells. Tumor volume and survival were recorded every 3-4 days."}, "[2]": {"molecular_target": "T1, human TLR5 (Homo sapiens, UniProt O60602)", "T1 construct": "expressed in transfected cells; host or cells: HEK293", "T1 sequence (O60602 21-858)": "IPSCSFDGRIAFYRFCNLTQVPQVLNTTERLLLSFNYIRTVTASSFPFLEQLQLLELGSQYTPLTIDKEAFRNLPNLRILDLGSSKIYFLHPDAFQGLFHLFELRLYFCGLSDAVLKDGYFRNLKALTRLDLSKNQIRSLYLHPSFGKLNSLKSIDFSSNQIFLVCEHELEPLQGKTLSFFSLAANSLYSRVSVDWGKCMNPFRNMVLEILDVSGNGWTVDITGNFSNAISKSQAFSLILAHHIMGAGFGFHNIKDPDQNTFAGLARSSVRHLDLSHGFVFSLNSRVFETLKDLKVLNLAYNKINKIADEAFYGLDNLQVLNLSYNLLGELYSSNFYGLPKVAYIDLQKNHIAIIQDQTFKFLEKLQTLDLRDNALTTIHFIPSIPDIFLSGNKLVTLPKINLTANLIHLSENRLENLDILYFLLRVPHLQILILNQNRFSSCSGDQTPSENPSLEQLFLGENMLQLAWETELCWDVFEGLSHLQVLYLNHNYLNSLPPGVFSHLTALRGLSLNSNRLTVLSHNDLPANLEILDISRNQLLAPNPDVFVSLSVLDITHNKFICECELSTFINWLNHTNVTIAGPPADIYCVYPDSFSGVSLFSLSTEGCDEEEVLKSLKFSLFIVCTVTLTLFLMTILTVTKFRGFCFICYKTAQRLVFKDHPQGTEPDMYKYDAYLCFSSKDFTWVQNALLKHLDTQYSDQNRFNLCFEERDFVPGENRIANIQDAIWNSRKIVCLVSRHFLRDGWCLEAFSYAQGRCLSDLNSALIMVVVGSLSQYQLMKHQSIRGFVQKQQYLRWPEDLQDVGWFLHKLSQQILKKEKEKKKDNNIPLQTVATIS", "assay": "TLR ligand screening: NF-κB SEAP reporter, agonist", "type": "cell-based", "details": "HEK293 cells expressing TLR5; NTR001 10 uM, inosine 100 uM", "protocol": "(§1) Method: TLR stimulation is tested by assessing NF-κB activation in HEK293 cells expressing a given TLR. The Secreted Embryonic Alkaline Phosphatase (SEAP) reporter is under the control of a promoter inducible by the transcription factor NF-κB. This reporter gene allows the monitoring of signaling through the TLR based on the activation of NF-κB. The activity of the compounds is tested on seven different human TLRs (TLR2, 3, 4, 5, 7, 8 and 9) as a potential agonist. The compounds are evaluated at one concentration and compared to control ligands. This step is performed in triplicate."}, "[3]": {"molecular_target": "T2, human TLR4 (Homo sapiens, UniProt O00206+Q9Y6Y9)", "T2 construct": "expressed in transfected cells; host or cells: HEK293", "T2 sequence (O00206 24-839)": "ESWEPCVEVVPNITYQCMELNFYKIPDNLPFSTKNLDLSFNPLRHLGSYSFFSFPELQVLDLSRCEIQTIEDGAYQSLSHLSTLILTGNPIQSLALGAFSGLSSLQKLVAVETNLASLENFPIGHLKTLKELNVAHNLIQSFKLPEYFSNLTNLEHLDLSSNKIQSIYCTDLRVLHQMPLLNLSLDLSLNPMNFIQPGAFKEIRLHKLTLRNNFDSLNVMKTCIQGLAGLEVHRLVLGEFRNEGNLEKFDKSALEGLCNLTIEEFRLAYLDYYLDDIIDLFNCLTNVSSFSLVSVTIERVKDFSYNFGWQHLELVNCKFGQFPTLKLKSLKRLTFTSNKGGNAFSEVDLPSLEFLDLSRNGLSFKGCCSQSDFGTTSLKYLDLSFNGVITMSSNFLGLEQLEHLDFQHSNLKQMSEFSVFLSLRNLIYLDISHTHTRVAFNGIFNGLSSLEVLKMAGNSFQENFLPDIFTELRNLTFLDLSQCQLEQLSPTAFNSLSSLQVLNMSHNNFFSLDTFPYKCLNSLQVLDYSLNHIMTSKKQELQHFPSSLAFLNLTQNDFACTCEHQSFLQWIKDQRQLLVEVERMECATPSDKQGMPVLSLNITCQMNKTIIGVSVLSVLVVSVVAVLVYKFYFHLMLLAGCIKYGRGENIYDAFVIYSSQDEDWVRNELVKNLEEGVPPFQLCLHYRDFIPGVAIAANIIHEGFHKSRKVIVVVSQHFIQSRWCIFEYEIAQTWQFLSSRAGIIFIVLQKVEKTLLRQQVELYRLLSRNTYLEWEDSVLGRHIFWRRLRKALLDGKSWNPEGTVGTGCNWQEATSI", "T2 sequence (Q9Y6Y9 17-160 limits assumed)": "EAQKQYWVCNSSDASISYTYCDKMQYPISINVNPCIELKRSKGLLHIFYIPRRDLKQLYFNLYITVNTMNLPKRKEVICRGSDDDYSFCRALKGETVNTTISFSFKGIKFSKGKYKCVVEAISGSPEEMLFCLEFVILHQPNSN", "assay": "TLR ligand screening: NF-κB SEAP reporter, agonist", "type": "cell-based", "details": "HEK293 cells expressing TLR4; guanosine 100 uM, NTR001 10 uM, inosine 100 uM; triplicate", "protocol": "as §1"}, "[4]": {"molecular_target": "T3, human TLR7 (Homo sapiens, UniProt Q9NYK1)", "T3 construct": "expressed in transfected cells; host or cells: HEK293", "T3 sequence (Q9NYK1 27-1049)": "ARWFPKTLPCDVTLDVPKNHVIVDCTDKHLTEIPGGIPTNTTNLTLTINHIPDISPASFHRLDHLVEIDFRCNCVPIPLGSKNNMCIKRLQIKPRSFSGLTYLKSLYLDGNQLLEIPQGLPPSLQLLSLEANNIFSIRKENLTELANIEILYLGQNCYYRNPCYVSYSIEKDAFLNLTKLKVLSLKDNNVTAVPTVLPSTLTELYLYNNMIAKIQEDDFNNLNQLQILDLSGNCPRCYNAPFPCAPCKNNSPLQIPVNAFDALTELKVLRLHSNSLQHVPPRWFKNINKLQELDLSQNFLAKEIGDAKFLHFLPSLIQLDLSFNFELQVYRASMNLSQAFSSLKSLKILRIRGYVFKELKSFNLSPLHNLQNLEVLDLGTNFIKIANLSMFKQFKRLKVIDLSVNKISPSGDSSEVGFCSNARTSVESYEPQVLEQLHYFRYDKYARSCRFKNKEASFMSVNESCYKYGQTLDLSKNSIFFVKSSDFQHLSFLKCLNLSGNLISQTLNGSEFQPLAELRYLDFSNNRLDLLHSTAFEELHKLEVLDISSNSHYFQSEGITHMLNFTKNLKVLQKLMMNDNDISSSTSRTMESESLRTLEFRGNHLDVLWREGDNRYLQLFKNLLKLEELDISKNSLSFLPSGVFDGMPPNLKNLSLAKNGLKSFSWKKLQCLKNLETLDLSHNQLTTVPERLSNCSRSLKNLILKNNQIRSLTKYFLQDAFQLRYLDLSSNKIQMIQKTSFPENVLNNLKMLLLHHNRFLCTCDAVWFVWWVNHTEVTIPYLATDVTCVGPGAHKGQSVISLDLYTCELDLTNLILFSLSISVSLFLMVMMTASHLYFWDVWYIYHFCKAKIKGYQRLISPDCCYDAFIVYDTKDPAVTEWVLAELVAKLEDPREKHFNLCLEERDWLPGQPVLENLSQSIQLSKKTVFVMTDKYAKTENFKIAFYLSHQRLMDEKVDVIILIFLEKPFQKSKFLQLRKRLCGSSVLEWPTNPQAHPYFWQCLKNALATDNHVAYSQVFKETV", "assay": "TLR ligand screening: NF-κB SEAP reporter, agonist", "type": "cell-based", "details": "HEK293 cells expressing TLR7; NTR001 10 uM, inosine 100 uM", "protocol": "as §1"}, "[5]": {"molecular_target": "T4, human TLR3 (Homo sapiens, UniProt O15455)", "T4 construct": "expressed in transfected cells; host or cells: HEK293", "T4 sequence (O15455 24-904)": "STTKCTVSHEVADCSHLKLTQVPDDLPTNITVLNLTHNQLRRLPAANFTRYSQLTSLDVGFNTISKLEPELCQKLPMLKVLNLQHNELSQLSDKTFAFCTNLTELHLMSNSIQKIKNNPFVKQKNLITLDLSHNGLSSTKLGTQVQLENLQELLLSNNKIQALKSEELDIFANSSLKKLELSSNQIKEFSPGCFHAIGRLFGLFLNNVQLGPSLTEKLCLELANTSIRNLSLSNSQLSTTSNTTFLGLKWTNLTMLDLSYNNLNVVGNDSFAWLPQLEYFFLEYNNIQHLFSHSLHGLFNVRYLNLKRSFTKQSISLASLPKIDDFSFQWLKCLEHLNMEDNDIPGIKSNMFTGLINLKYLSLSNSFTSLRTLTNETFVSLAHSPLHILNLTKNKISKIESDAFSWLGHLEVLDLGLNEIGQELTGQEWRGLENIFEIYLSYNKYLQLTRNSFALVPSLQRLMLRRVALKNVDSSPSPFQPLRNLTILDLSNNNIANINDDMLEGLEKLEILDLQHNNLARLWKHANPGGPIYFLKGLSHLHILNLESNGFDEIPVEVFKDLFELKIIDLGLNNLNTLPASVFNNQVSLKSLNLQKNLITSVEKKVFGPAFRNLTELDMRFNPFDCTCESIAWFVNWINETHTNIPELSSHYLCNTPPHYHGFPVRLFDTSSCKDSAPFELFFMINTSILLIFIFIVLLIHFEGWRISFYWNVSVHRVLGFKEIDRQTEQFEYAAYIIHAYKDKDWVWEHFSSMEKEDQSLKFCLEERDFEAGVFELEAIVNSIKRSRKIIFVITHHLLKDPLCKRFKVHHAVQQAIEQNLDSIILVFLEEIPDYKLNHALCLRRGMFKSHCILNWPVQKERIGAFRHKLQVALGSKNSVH", "assay": "TLR ligand screening: NF-κB SEAP reporter, agonist", "type": "cell-based", "details": "HEK293 cells expressing TLR3; NTR001 10 uM, inosine 100 uM", "protocol": "as §1"}, "[6]": {"molecular_target": "T5, human TLR8 (Homo sapiens, UniProt Q9NR97)", "T5 construct": "expressed in transfected cells; host or cells: HEK293", "T5 sequence (Q9NR97 27-1041)": "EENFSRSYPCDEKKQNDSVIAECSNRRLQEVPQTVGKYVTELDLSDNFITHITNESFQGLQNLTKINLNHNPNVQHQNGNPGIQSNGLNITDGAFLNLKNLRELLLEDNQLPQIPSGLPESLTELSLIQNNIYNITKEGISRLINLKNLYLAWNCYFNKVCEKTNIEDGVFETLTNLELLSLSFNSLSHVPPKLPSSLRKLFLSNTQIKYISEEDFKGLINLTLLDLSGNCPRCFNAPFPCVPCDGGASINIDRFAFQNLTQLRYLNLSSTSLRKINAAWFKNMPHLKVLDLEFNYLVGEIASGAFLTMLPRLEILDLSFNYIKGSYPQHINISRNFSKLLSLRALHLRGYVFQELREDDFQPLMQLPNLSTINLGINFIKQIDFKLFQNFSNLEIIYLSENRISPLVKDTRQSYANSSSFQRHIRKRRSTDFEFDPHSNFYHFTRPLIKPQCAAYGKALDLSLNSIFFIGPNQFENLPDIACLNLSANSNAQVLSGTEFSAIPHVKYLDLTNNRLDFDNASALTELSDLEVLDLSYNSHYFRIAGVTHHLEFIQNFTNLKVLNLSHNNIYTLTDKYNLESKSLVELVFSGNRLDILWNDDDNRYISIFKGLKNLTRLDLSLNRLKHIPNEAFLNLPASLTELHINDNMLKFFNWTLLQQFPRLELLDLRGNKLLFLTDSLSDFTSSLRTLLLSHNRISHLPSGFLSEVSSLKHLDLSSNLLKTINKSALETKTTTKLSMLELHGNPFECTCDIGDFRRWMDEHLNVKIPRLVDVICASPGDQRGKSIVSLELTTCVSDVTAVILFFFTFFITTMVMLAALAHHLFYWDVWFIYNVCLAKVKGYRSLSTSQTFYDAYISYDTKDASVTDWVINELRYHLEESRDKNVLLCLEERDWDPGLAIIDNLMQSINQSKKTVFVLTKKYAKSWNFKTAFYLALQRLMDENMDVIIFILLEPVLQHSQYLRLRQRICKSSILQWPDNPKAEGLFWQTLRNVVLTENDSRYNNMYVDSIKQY", "assay": "TLR ligand screening: NF-κB SEAP reporter, agonist", "type": "cell-based", "details": "HEK293 cells expressing TLR8; NTR001 10 uM, inosine 100 uM", "protocol": "as §1"}, "[7]": {"molecular_target": "T6, human TLR2 (Homo sapiens, UniProt O60603)", "T6 construct": "expressed in transfected cells; host or cells: HEK293", "T6 sequence (O60603 21-784)": "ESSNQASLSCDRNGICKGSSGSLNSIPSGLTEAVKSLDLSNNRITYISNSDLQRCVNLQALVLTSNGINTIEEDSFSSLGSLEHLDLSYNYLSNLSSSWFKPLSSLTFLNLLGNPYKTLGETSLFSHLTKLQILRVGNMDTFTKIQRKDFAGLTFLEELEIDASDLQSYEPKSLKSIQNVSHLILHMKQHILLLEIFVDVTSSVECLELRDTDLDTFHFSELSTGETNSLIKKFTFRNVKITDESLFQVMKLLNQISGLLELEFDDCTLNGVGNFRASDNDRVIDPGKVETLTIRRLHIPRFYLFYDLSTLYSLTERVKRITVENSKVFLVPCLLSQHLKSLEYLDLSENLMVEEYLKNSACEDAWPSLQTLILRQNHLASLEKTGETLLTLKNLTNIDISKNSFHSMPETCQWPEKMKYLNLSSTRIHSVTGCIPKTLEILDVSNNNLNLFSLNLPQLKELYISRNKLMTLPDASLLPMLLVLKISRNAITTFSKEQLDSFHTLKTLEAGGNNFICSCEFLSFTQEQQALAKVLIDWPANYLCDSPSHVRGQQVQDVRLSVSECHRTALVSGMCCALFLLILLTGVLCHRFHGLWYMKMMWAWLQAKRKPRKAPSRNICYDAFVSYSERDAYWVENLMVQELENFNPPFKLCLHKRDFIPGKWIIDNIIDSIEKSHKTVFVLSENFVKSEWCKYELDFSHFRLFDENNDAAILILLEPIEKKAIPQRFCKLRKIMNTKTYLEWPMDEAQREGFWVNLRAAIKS", "assay": "TLR ligand screening: NF-κB SEAP reporter, agonist", "type": "cell-based", "details": "HEK293 cells expressing TLR2; guanosine 100 uM, NTR001 10 uM, inosine 100 uM; triplicate", "protocol": "as §1"}, "[8]": {"molecular_target": "T7, human TLR9 (Homo sapiens, UniProt Q9NR96)", "T7 construct": "expressed in transfected cells; host or cells: HEK293", "T7 sequence (Q9NR96 26-1032)": "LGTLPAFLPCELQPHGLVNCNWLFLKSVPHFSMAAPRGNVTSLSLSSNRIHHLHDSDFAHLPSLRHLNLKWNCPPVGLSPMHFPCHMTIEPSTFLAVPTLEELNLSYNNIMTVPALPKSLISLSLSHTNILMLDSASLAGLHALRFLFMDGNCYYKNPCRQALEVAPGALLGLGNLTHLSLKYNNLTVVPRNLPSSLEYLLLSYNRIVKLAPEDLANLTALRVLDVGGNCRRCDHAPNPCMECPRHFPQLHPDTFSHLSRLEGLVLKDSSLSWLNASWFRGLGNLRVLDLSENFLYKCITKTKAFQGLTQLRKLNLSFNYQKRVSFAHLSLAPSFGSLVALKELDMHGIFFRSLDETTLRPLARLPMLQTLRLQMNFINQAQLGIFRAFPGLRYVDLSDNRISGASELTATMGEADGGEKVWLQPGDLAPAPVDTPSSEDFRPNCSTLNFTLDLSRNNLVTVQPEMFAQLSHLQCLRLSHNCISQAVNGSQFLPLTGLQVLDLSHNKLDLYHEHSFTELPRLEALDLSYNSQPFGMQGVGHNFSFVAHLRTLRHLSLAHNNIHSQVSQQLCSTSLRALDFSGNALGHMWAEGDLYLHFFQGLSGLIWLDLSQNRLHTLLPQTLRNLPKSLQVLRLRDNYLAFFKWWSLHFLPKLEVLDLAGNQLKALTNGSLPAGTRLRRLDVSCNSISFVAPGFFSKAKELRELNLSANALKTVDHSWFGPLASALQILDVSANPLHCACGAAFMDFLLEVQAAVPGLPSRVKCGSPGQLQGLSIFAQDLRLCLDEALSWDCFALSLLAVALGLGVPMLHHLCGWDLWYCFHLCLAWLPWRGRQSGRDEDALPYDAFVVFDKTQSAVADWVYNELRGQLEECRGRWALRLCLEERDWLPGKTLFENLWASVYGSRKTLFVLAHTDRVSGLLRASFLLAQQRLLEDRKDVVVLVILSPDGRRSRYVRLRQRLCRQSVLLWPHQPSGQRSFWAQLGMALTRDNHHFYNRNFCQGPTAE", "assay": "TLR ligand screening: NF-κB SEAP reporter, agonist", "type": "cell-based", "details": "HEK293 cells expressing TLR9; NTR001 10 uM, inosine 100 uM", "protocol": "as §1"}},
  "data": [
    {"smiles": "O=P1(N(CCCl)CCCl)NCCCO1", "note": "(stereo not shown) [Cyclcophosphamide, Cyclophosphamide]", "values": [
      {"measurement": "survival", "setting": "[1]", "value": 30, "unit": "%"}
    ]},
    {"smiles": "OC[C@H]1O[C@@H](n2cnc3c(O)ncnc32)[C@H](O)[C@@H]1O", "note": "[Inosine]", "values": [
      {"measurement": "stimulatory effect on human TLR5 (NF-κB activation)", "setting": "[2]", "value": "do not directly exhibit a stimulatory effect"},
      {"measurement": "stimulatory effect on human TLR4 (NF-κB activation)", "setting": "[3]", "value": "do not directly exhibit a stimulatory effect"},
      {"measurement": "stimulatory effect on human TLR7 (NF-κB activation)", "setting": "[4]", "value": "do not directly exhibit a stimulatory effect"},
      {"measurement": "stimulatory effect on human TLR3 (NF-κB activation)", "setting": "[5]", "value": "do not directly exhibit a stimulatory effect"},
      {"measurement": "stimulatory effect on human TLR8 (NF-κB activation)", "setting": "[6]", "value": "do not directly exhibit a stimulatory effect"},
      {"measurement": "stimulatory effect on human TLR2 (NF-κB activation)", "setting": "[7]", "value": "do not directly exhibit a stimulatory effect"},
      {"measurement": "stimulatory effect on human TLR9 (NF-κB activation)", "setting": "[8]", "value": "do not directly exhibit a stimulatory effect"}
    ]},
    {"smiles": "Nc1nc2c(ncn2[C@@H]2O[C@H](CO)[C@@H](O)[C@H]2O)c(=O)[nH]1", "note": "[Guansoine, guanosine]", "values": [
      {"measurement": "stimulatory effect on human TLR4 (NF-κB activation)", "setting": "[3]", "value": "significant stimulatory effect"},
      {"measurement": "stimulatory effect on human TLR2 (NF-κB activation)", "setting": "[7]", "value": "significant stimulatory effect"}
    ]}
  ]
}
